The test system of the assay is BDF1 mice, B16 melanoma ip, median survival T/C. Description: NCI In Vivo Anticancer Drug Screen. Data for tumor model B16 Melanoma (intraperitoneal) in B6D2F1 (BDF1) mice. Particulars: endpoint: median survival time, higher = longer survival. In outline: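 Read-out: survival or tumor size, given as treated/control ratio. Controls received vehicle only; animals bore transplantable tumors.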

Where “and” joins values, the source holds several entries; their conditions need not be identical. Equal values may be shown once. Toxic doses and inconclusive results are not listed.

On to `COc1cccc2c1C(=O)c1c(O)c3c(c(O)c1C2=O)C[C@@](O)(C(C)=O)C[C@@H]3OC1CC(N)C(O)C(C)O1` (stereo partly specified), for which the T/C runs as follows: (dose: 0.06 mg/kg/injection, schedule: Q01DX017 (ip), vehicle: clinical formulation) 184 % of control; (dose: 0.06 mg/kg/injection, schedule: Q05DX010 (ip), vehicle: clinical formulation) 160 % of control; (dose: 0.12 mg/kg/injection, schedule: Q01DX009 (ip), vehicle: clinical formulation) 168 % of control; (dose: 0.12 mg/kg/injection, schedule: Q01DX017 (ip), vehicle: clinical formulation) 178 % of control; (dose: 0.12 mg/kg/injection, schedule: Q05DX010 (ip), vehicle: clinical formulation) 165 % of control; (dose: 0.13 mg/kg/injection, schedule: Q01DX009 (ip), vehicle: water) 189 % of control. Besides, the T/C (dose: 0.2 mg/kg/injection, schedule: Q01DX009 (ip), vehicle: saline) was 170 % of control; the T/C (dose: 0.25 mg/kg/injection, schedule: Q01DX009 (ip), vehicle: clinical formulation) was 192 % of control; the T/C (dose: 0.25 mg/kg/injection, schedule: Q01DX017 (ip), vehicle: clinical formulation) was 226 % of control; the T/C (dose: 0.25 mg/kg/injection, schedule: Q03HX008 (ip), vehicle: saline) is 152 % of control; the T/C (dose: 0.25 mg/kg/injection, schedule: Q04DX003 (ip), vehicle: clinical formulation) is 162 % of control; the T/C (dose: 0.25 mg/kg/injection, schedule: Q04DX005 (ip), vehicle: clinical formulation) was 165 % of control. Further, the T/C is 237 % of control (dose: 0.25 mg/kg/injection, schedule: Q05DX010 (ip), vehicle: clinical formulation); 212 % of control (dose: 0.39 mg/kg/injection, schedule: Q01DX009 (ip), vehicle: saline); 292 % of control (dose: 0.5 mg/kg/injection, schedule: Q01DX009 (ip), vehicle: clinical formulation); 315 % of control (dose: 0.5 mg/kg/injection, schedule: Q01DX017 (ip), vehicle: clinical formulation); 215 % of control (dose: 0.5 mg/kg/injection, schedule: Q04DX005 (ip), vehicle: clinical formulation); 235 % of control (dose: 0.5 mg/kg/injection, schedule: Q05DX010 (ip), vehicle: clinical formulation). Besides, the T/C runs as follows: (dose: 0.5 mg/kg/injection, schedule: Q11DX018 (sc), vehicle: water) 100 % of control; (dose: 0.78 mg/kg/injection, schedule: Q01DX009 (ip), vehicle: saline) 238 % of control; (dose: 1.0 mg/kg/injection, schedule: Q01DX001 (ip), vehicle: clinical formulation) 223 % of control; (dose: 1.0 mg/kg/injection, schedule: Q01DX009 (ip), vehicle: clinical formulation) 204 % of control; (dose: 1.0 mg/kg/injection, schedule: Q01DX017 (ip), vehicle: clinical formulation) 213 % of control; (dose: 1.0 mg/kg/injection, schedule: Q04DX003 (ip), vehicle: clinical formulation) 217 % of control. Besides, the T/C runs as follows: (dose: 1.0 mg/kg/injection, schedule: Q04DX005 (ip), vehicle: clinical formulation) 194 % of control; (dose: 1.0 mg/kg/injection, schedule: Q05DX010 (ip), vehicle: clinical formulation) 200 % of control; (dose: 1.0 mg/kg/injection, schedule: Q11DX018 (sc), vehicle: water) 111 % of control; (dose: 1.5 mg/kg/injection, schedule: Q01DX001 (ip), vehicle: water) 287 % of control; (dose: 1.56 mg/kg/injection, schedule: Q01DX009 (ip), vehicle: saline) 150 % of control; (dose: 2.0 mg/kg/injection, schedule: Q01DX001 (ip), vehicle: clinical formulation) 204 % of control. In addition, the T/C is, setting by setting: (dose: 2.0 mg/kg/injection, schedule: Q01DX009 (ip), vehicle: clinical formulation) 187 % of control; (dose: 2.0 mg/kg/injection, schedule: Q04DX003 (ip), vehicle: clinical formulation) 215 % of control; (dose: 2.0 mg/kg/injection, schedule: Q04DX005 (ip), vehicle: clinical formulation) 160 % of control; (dose: 2.0 mg/kg/injection, schedule: Q05DX010 (ip), vehicle: clinical formulation) 110 % of control; (dose: 3.0 mg/kg/injection, schedule: Q01DX001 (ip), vehicle: water) 287 % of control; (dose: 4.0 mg/kg/injection, schedule: Q01DX001 (ip), vehicle: clinical formulation) 285 % of control. Further, the T/C is 94 % of control and 103 % of control (dose: 6.0 mg/kg/injection, schedule: Q01DX001 (ip), vehicle: water); 107 % of control and 122 % of control (dose: 7.5 mg/kg/injection, schedule: Q01DX001 (ip), vehicle: water); 110 % of control (dose: 10.0 mg/kg/injection, schedule: Q01DX001 (ip), vehicle: water).

Take `Nc1ccc(S(=O)(=O)c2ccc(NCNc3ccc(S(=O)(=O)c4ccc(N)cc4)cc3)cc2)cc1`: the T/C reads like this: (dose: 100.0 mg/kg/injection, schedule: Q01DX009 (ip), vehicle: saline with Tween-80) 88 % of control; (dose: 200.0 mg/kg/injection, schedule: Q01DX009 (ip), vehicle: saline with Tween-80) 92 % of control; (dose: 400.0 mg/kg/injection, schedule: Q01DX009 (ip), vehicle: saline with Tween-80) 90 % of control.

`N#CCCc1ccc(O)cc1`: the T/C is, setting by setting: (dose: 50.0 mg/kg/injection, schedule: Q01DX009 (ip), vehicle: gum acacia) 100 % of control; (dose: 50.0 mg/kg/injection, schedule: Q04DX003 (ip), vehicle: gum acacia) 100 % of control; (dose: 100.0 mg/kg/injection, schedule: Q01DX009 (ip), vehicle: gum acacia) 89 % of control; (dose: 100.0 mg/kg/injection, schedule: Q04DX003 (ip), vehicle: gum acacia) 106 % of control; (dose: 200.0 mg/kg/injection, schedule: Q01DX009 (ip), vehicle: gum acacia) 91 % of control; (dose: 200.0 mg/kg/injection, schedule: Q04DX003 (ip), vehicle: gum acacia) 95 % of control.

`CC(=O)NCCCCCCNC(C)=O`: the T/C is, setting by setting: (dose: 100.0 mg/kg/injection, schedule: Q01DX009 (ip), vehicle: saline) 101 % of control; (dose: 200.0 mg/kg/injection, schedule: Q01DX009 (ip), vehicle: saline) 105 % of control; (dose: 400.0 mg/kg/injection, schedule: Q01DX009 (ip), vehicle: saline) 87 % of control; (dose: 800.0 mg/kg/injection, schedule: Q01DX009 (ip), vehicle: saline) 105 % of control.

For `NC(=O)CCC(N)C(=O)O.[Cl-].[Cl-].[Cl-].[Cl-].[Pt+2]` (stereo unspecified), the T/C is, setting by setting: (dose: 1.56 mg/kg/injection, schedule: Q01DX009 (ip), vehicle: water) 110 % of control; (dose: 3.13 mg/kg/injection, schedule: Q01DX009 (ip), vehicle: water) 110 % of control; (dose: 12.5 mg/kg/injection, schedule: Q01DX009 (ip), vehicle: water) 120 % of control; (dose: 25.0 mg/kg/injection, schedule: Q01DX009 (ip), vehicle: water) 112 % of control.

For `Nc1c(Cl)c(Cl)nc(C(=O)O)c1Cl`, the T/C was 96 % of control (dose: 6.25 mg/kg/injection, schedule: Q01DX009 (ip), vehicle: Klucel (hydroxypropylcellulose) (HPC)); 108 % of control (dose: 12.5 mg/kg/injection, schedule: Q01DX009 (ip), vehicle: Klucel (hydroxypropylcellulose) (HPC)); 108 % of control (dose: 25.0 mg/kg/injection, schedule: Q01DX009 (ip), vehicle: Klucel (hydroxypropylcellulose) (HPC)); 95 % of control (dose: 25.0 mg/kg/injection, schedule: Q02DX009 (ip), vehicle: Klucel (hydroxypropylcellulose) (HPC)); 96 % of control (dose: 50.0 mg/kg/injection, schedule: Q01DX009 (ip), vehicle: Klucel (hydroxypropylcellulose) (HPC)); 91 % of control (dose: 50.0 mg/kg/injection, schedule: Q02DX009 (ip), vehicle: Klucel (hydroxypropylcellulose) (HPC)). For the same molecule, the T/C runs as follows: (dose: 50.0 mg/kg/injection, schedule: Q02DX009 (ip), vehicle: other) 95 % of control; (dose: 100.0 mg/kg/injection, schedule: Q01DX009 (ip), vehicle: Klucel (hydroxypropylcellulose) (HPC)) 102 % of control; (dose: 100.0 mg/kg/injection, schedule: Q02DX009 (ip), vehicle: other) 86 % of control; (dose: 200.0 mg/kg/injection, schedule: Q01DX009 (ip), vehicle: Klucel (hydroxypropylcellulose) (HPC)) 98 % of control.

Consider `C[Si]1(C)CCCSC1`, for which the T/C is 98 % of control (dose: 12.5 mg/kg/injection, schedule: Q01DX009 (ip), vehicle: saline with Tween-80); 98 % of control (dose: 25.0 mg/kg/injection, schedule: Q01DX009 (ip), vehicle: saline with Tween-80); 91 % of control (dose: 50.0 mg/kg/injection, schedule: Q01DX009 (ip), vehicle: saline with Tween-80).

`CC(=O)CC(=O)Nc1cc(Cl)c(NC(=O)CC(C)=O)cc1Cl`: the T/C is, setting by setting: (dose: 100.0 mg/kg/injection, schedule: Q04DX003 (ip), vehicle: saline with Tween-80) 88 % of control; (dose: 200.0 mg/kg/injection, schedule: Q04DX003 (ip), vehicle: saline with Tween-80) 98 % of control.

The values are drawn from PubChem BioAssay AID192 (DTP/NCI, 2004).
